By pKi is commonly meant −log10 of the Ki, conventionally taken in molar units. Read a high pKi as a low Ki.

Data on 24 compounds can be found in BindingDB's records for doi:10.1016/S0006-291X(02)00356-X (Katholieke Universiteit Leuven, 2002).

pKi: −log10 of the molar value.

In the test the target is T1, Promotilin (Homo sapiens, UniProt P12872).
T1 sequence (P12872 whole entry): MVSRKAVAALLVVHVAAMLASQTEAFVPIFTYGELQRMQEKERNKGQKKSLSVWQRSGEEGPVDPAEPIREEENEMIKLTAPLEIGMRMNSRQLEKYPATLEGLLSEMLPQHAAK
On to `CC[C@H]1OC(=O)[C@H](C)[C@@H](O[C@H]2C[C@@](C)(OC)[C@@H](O)[C@H](C)O2)[C@H](C)[C@@H](O[C@@H]2O[C@H](C)C[C@H](N(C)C)[C@H]2O)[C@@]2(C)CC(C)=C(O2)[C@H](C)[C@@H](O)[C@]1(C)O` [Erythromycin-A enol ether], for which the pKi is 8.08.

`CC[C@H]1OC(=O)[C@H](C)[C@@H](O[C@H]2C[C@@](C)(OC)[C@@H](O)[C@H](C)O2)[C@H](C)[C@@H](O[C@@H]2O[C@H](C)C[C@H](N(C)C)[C@H]2O)C2(C)CC(C)=C(O2)[C@H](C)[C@@H](O)[C@H]1C` (some centres undefined) [Erythromycin-B enol ether]: the pKi was 8.12.

For `CC[C@H]1OC(=O)[C@H](C)[C@@H](O[C@H]2C[C@@](C)(OC)[C@@H](O)[C@H](C)O2)[C@H](C)[C@@H](O[C@@H]2O[C@H](C)C[C@H](N(C)C)[C@H]2O)[C@](C)(O)C[C@@H](C)C(=O)[C@H](C)[C@@H](O)[C@H]1C` [Erythromycin-B], the pKi is 6.84.

`CC[C@H]1OC(=O)[C@H](C)[C@@H](O[C@H]2C[C@@](C)(OC)[C@@H](O)[C@H](C)O2)[C@H](C)[C@@H](O[C@@H]2O[C@H](C)C[C@H](N(C)CC)[C@H]2O)[C@](C)(O)C[C@@H](C)C(=O)[C@H](C)[C@@H](O)[C@]1(C)O` [N-ethyl, N-Methyl Erythromycin-A] showed a pKi of 6.62.

With `CC[C@H]1OC(=O)[C@H](C)[C@@H](O[C@H]2C[C@@](C)(OC)[C@@H](O)[C@H](C)O2)[C@H](C)[C@@H](O[C@@H]2O[C@H](C)C[C@H](N(C)CC)[C@H]2O)[C@@]2(C)CC(C)=C(O2)[C@H](C)[C@@H](O)[C@]1(C)O` [N-ethyl, N-methyl Erythromycin-A enol ether], the pKi is 8.22.

`CC[C@H](C)[C@H](NC(=O)[C@@H]1CCCN1C(=O)[C@@H](NC(=O)[C@@H](N)Cc1ccccc1)C(C)C)C(=O)N[C@@H](Cc1ccccc1)C(=O)N[C@H](C(=O)N[C@@H](Cc1ccc(O)cc1)C(=O)NCC(=O)N[C@@H](CCC(=O)O)C(=O)N[C@@H](CC(C)C)C(=O)N[C@@H](CCC(N)=O)C(=O)N[C@@H](CCCN=C(N)N)C(=O)N[C@@H](CC(C)C)C(=O)N[C@@H](CCC(N)=O)C(=O)N[C@@H](CCC(=O)O)C(=O)N[C@@H](CCCCN)C(N)=O)[C@@H](C)O` [[leu13]pMOT(1-16)] had a pKi of 8.67.

Take “H-FVAIFTYGELQRLQ-NH2 [[ala3,leu13]pMOT(1-14)]”: the pKi was 8.88. Against the preceding compound, the pKi is 0.21 log units higher.

In turn, “H-FVPAFTYGELQRLQ-NH2 [[ala4,leu13]pMOT(1-14)]” showed a pKi of 5.59.

“H-FVPIATYGELQRLQ-NH2 [[ala5,leu13]pMOT(1-14)]” had a pKi of 7.54.

As to H-FVPIF-NH2 [[leu13]pMOT(1-5)], the pKi was 5.05.

“H-FVPIFAYGELQRLQ-NH2 [[ala6,leu13]pMOT(1-14)]” showed a pKi of 7.33. This pKi lies 2.28 log units higher than the previous one.

Compound “H-FVPIFTAGELQRLQ-NH2 [[ala7,leu13]pMOT(1-14)]” gave a negative logarithm of the Ki (pKi) of 5.84.

As to H-FVPIFTY-NH2 [[leu13]pMOT(1-7)], the pKi is 5.16.

On to “H-FVPIFTYAELQRLQ-NH2 [[ala8,leu13]pMOT(1-14)]”, for which the pKi is 7.44.

“H-FVPIFTYGALQRLQ-NH2 [[ala9,leu13]pMOT(1-14)]” had a pKi of 7.12.

In turn, H-FVPIFTYGE-NH2 [[leu13]pMOT(1-9)] showed a pKi of 5.39.

As to “H-FVPIFTYGEAQRLQ-NH2 [[ala10,leu13]pMOT(1-14)]”, the negative-log Ki (pKi) is 8.30.

As to “H-FVPIFTYGELARLQ-NH2 [[ala11,leu13]pMOT(1-14)]”, the pKi is 8.34.

In turn, H-FVPIFTYGELQ-NH2 [[leu13]pMOT(1-11)] had a pKi of 7.05.

On to “H-FVPIFTYGELQALQ-NH2 [[ala12,leu13]pMOT(1-14)]”, for which the pKi is 8.20.

“H-FVPIFTYGELQRAQ-NH2 [[ala13,leu13]pMOT(1-14)]” had a pKi of 8.14.

As for “H-FVPIFTYGELQRLA-NH2 [[ala14,leu13]pMOT(1-14)]”, the pKi was 8.15.

Compound “H-FVPIFTYGELQRLQEKERN-NH2 [[leu13]pMOT(1-19)]” gave a pKi of 9.01.

“H-FVPIFTYGELQRLQEKERNKGQ-OH [[leu13]pMOT(1-22)]”: the pKi was 9.00.
